In US20090275605A1, “3,11 b-cis-Dihydrotetrabenazine for the Treatment of a Proliferative Disease or an Inflammatory Disease” (CAMBRIDGE LABORATORIES (IRELAND) LIMITED, priority 2005, published 2009):
Where “and” joins values, the source holds several entries; their conditions need not be identical. Equal values may be shown once. Entries after “also recorded” stand apart in the source; their conditions may differ.

How the values were obtained:
Sigma σ2 Receptor = target: T1, Sigma σ2 Receptor (Rattus norvegicus, UniProt Q5U3Y7); assay: Sigma σ2 receptor radioligand binding ([3H]Ifenprodil); conditions: 10 μM solutions; Wistar rat brain; 3 nM [3H]Ifenprodil
T1 construct: Source: Wistar rat brain; from tissue; host or cells: Wistar rat brain
T1 sequence (Q5U3Y7 1-176): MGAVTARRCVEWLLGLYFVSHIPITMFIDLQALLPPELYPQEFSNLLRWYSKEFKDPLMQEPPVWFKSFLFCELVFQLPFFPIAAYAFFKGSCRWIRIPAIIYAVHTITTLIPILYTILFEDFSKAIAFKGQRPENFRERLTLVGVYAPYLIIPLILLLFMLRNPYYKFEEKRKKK
Procedure: The four dihydrotetrabenazine isomers A, B, C and D subjected to specific binding assays to test their ability to bind to the sigma-1 and sigma-2 receptors.
Reference: Hashimoto et al., Eur. J. Pharmacol., 236:159-163, (1993) Source: Wistar rat brain
Incubation time/Temp: 60 minutes @ 37° C.
Bmax: 1.3 pmole/mg protein Specific binding: 85% Quantitation method: Radioligand binding Significance criteria: ≧50% of maximum stimulation or inhibition

Sigma σ1 Receptor = target: T2, Sigma σ1 Receptor (Homo sapiens, UniProt Q99720); assay: Sigma σ1 receptor radioligand binding ([3H]Haloperidol); conditions: for Percentage Inhibition of Specific Binding at Sigma-1 Receptor: 10 μM solutions, human jurkat cells, 8 nM [3H]Haloperidol
T2 construct: Source: Human jurkat cells; endogenous in cells; host or cells: Human Jurkat cells
T2 sequence (Q99720 whole entry): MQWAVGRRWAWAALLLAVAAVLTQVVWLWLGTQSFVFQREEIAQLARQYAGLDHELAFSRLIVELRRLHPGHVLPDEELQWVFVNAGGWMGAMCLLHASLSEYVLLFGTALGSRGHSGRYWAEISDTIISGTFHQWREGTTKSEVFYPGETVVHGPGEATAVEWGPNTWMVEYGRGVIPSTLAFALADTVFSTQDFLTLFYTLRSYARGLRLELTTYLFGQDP
Procedure: The four dihydrotetrabenazine isomers A, B, C and D subjected to specific binding assays to test their ability to bind to the sigma-1 and sigma-2 receptors. (a) Sigma σ1 Receptor: Reference: […] et al., Pharmacol. Exp. Ther., 289:251-260, (1999) Source: Human jurkat cells […] Vehicle: 1% DMSO Incubation time/Temp: 4 hours (25° C.

[1] = test system: T cells (balb/c mouse spleen cells); assay: T cell proliferation (3H-thymidine incorporation, anti-CD3 coated plates); format: cell-based; conditions: plates 1-3 are triplicates
Procedure: The compounds of the invention were tested to determine the extent to they can inhibit T cell proliferation. T cells are responsible for co-ordinating the adaptive immune response and are drivers of inflammation in a wide range of disease states.
HBSS+2% HEPES buffer (500 ml+10 ml), Alpha MEM (500 ml)+2% HEPES (10 ml)+1% Pen/strep (5 ml)+2% L-Glutamine (10 ml)+50 μM 2-ME (500 μl) and Normal Mouse serum (NMS)
1. Coat 3×96 well plates columns 1-8, rows A-H with 100 μl anti-mouse CD3 at […] in PBS. 192 well in total, therefore made up 24 mls in PBS by adding 17 μl of stock at 1.44 mg/ml. Incubate 2 hours 37° C. 2. Pooled blood from 2 balb/c mice following cardiac puncture for preparation of NMS and removed spleens into HBSS+Hepes. 3. Placed blood at 37° C. for 30 minutes to clot, spun 3,000 rpm, 10 minutes in chilspin. Removed serum, filter sterilised and kept in fridge until use. 4. Transferred spleens to petri dishes containing 10 ml HBSS, used clean sterile wire mesh placed over spleen to release cells using a glass rod. Washed cells off mesh using pasteur pipette and transferred to a 15 ml tube. Spun at 1000 rpm for 10 minutes at room temperature (RT). 5. Resuspended cells, added 0.5 ml sterile DW to lyse RBC, mixed and immediately diluted in HBSS, transfered to 50 ml tube passing through cell strainer (70 μM) to remove debris, spun as above, washed cells once more in HBSS and finally resuspended in […] alpha MEM containing supplements (as above). 6. Cell counts—252 cells×2×5×10^4=2.52×10^7 cells/ml in 4 mls=10^8 cells in total. Dilute 2 mls to 25 mls to give a cell concentration of 2×10^6 cells/ml. 7. Added 250 μl NMS to cells to give a concentration of 1%. 8. Washed anti-CD3 coated plates 3×PBS. 9. Transferred 100 μl aliquots of cells to coated wells, rows A-H columns 1-8 of 3×96-well plates. Add equal volume of compounds diluted in a 96 well plate as shown below.
Transferred 3.5 μl compound at 10 mM to 346.5 μl media (1/100), transferred 35 μl of 1/100 dilution to 315 μl media (1/10) and so on down plate to give serial 1/10 dilutions of compound. Transferred 100 μl aliquots of different compound dilutions to wells of triplicate plates containing T cells.
Culture for 48 hours, then add a drop (16 μl) of ^3H-thymidine to each well and incubate overnight at 37° C. 5% CO2. Harvest. Measure ^3H-thymidine incorporation.

[2] = test system: LPS/IFNγ stimulated human CD14+ monocytes; assay: LPS/IFN stimulated production of cytokines by human monocytes (CBA cytokine analysis); format: cell-based
Procedure: The compounds of the invention were tested to determine the extent to they can modulate the production of cytokines by human monocytes. Monocytes are precursors of macrophages and are a key source of inflammatory cytokines in a wide range of disease states.
The following treatment groups were set up.
MACS Buffer: 1×PBS pH 7.2, 2 mM EDTA (Sigma), 5% human AB serum Culture Media: 500 ml RPMI 1640 (Invitrogen), 5 ml Penstrep (Sigma), 5 ml L-glutamine (Invitrogen), 10 ml HEPES (Sigma), 5% autologous plasma. Compounds: Stock at 10 mM in absolute ethanol. LPS: Salmonella abortis at 1 mg/ml (Sigma, Cat # LI 887). IFNγ: Recombinant human at 10 μg/ml (BD Pharmacia, Cat # 554617). MACS CD14 positive selection beads and LS columns (Miltenyi Biotech). CD14: FITC antibody (Miltenyi Biotech) Buffy coat obtained from Bristol National Blood Services. 1 ml of blood should give 7×10^6 total cells.
Spin buffycoat at 3500 rpm, 10 min. Remove upper plasma layer and heat-inactivate at 56° C., 30 min. Spin at 3500 rpm, 10 min to remove heat-inactivated complement proteins etc.
1. Resuspend remaining buffycoat in an equal volume of RPMI 1 640 medium and mix by inversion. 2. Prewarm histopaque (Sigma) to room temperature (RT) and add 10 ml to a universal. 3. Gently overlay with 15 ml blood/medium mix. 4. Spin at 1600 rpm for 25 minutes at RT (no brake). 5. PBMC are separated into the interface layer between the medium and the histopaque, remove cells to a 50 ml Falcon and add 10 ml medium.
6. Spin at 1800 rpm for 10 min at RT.
7. Wash ×3 with 40 ml RPMI medium and resuspend in culture medium. Isolate CD14^+ Cells by Positive Selection with CD14^+ MicroBeads Work on ice, with pre-cooled solutions. 1. Determine cell numbers (313×10×5×10^4=1.565×10^8 total cells) 2. Remove 100 μl cell sample for Fluorescence-Activated Cell-Sorting (FACS) analysis (pre-selection sample). 3. Spin at 1800 rpm for 10 minutes at 4° C. Remove supernatant. 4. Resuspend pellet in 80 μl buffer per 1×10^7 total cells (2400 μL/total cells). 5. Add 20 μl CD14 MicroBeads per 1×10^7 total cells (400 μl/total cells). 6. Mix well and incubate for 15 minutes at 4-8° C. 7. Wash cells with 1-2 ml buffer, spin at 300×g, 10 minutes at 4° C. Remove supernatant. 8. Resuspend up to 1×10^8 cells in 500 μl buffer (1 ml/total cells). Magnetic Separation with LS Column 1. Place column in magnetic field of MACS® Separator. Rinse column with 3 ml of MACS buffer. 2. Add cell suspension to column. 3. Collect unlabelled cells which pass through. Wash column with 3×3 ml buffer, allowing the column reservoir to empty between each wash. Collect total effluent (unlabelled cell fraction). 4. Remove column from separator and place on collection tube. 5. Add 5 ml buffer to column, immediately flushing out fraction with magnetically labelled cells by applying column plunger. 6. Spin cells in MACS Buffer and resuspend cell pellet in media. 7. Perform cell count on positively selected cells. • 71×20×5×10^4=7.1×10^7 cells/ml. Have 1.75 ml∴1.24×10^8 total cells. 8. Take sample to check purity by FACS add 10 μl CD14-FITC antibody and incubate, 5 minutes at 4-8° C.
Prepare compounds at 10 mM in absolute ethanol. Dilute prior to culture in media to the required concentrations.
Isolated CD14^+ monocytes were cultured in 24-well plates at 1×10^6 cells/ml/well. The monocytes were cultured in the presence of the test compounds and controls at various dilutions as set out in the table below. After overnight incubation, LPS (10 μg/ml) and IFNγ (100 ng/ml) were added to stimulate monocyte activation and elevate CB2 expression. After 48 hours, the supernatants were removed for CBA cytokine analysis.
Bring all buffers to room temperature and vortex before use 1. Make up assay buffer by adding to 450 ml distilled H2O and mixing gently. Store at 4° C. 2. Make up biotin-conjugate mix by 600 μl of each biotin-conjugates into a universal. 3. Make up bead mix by adding 300 μl of each bead set. 4. […]

## COc1cc2c(cc1OC)[C@@H]1C[C@@H](O)[C@H](CC(C)C)CN1CC2 (single isomer, unassigned) [Isomer A]
Sigma σ2 Receptor
  Percentage Inhibition of Specific Binding at Sigma-2 Receptor: 64%
Sigma σ1 Receptor
  Percentage Inhibition of Specific Binding at Sigma-1 Receptor: 48%

## COc1cc2c(cc1OC)[C@H]1C[C@H](O)[C@@H](CC(C)C)CN1CC2 (single isomer, unassigned) [Isomer B]
Sigma σ2 Receptor
  Percentage Inhibition of Specific Binding at Sigma-2 Receptor: 64%
[1]; listed as A = 100 μM, listed as RU350
  T cell Proliferation (3H-thymidine incorporation): 42 and 51.4 and 28
[1]; listed as C = 1 μM, listed as RU350
  T cell Proliferation (3H-thymidine incorporation): 62557.5 and 58812.6 and 46179.1
[1]; listed as D = 100 nM, listed as RU350
  T cell Proliferation (3H-thymidine incorporation): 63867.2 and 67792.8 and 54194.4
[1]; listed as E = 10 nM, listed as RU350
  T cell Proliferation (3H-thymidine incorporation): 66290 and 70736.7 and 53277.2
[1]; listed as F = 1 nM, listed as RU350
  T cell Proliferation (3H-thymidine incorporation): 49054.3 and 74224 and 58924.4
[1]; listed as G = 100 pM, listed as RU350
  T cell Proliferation (3H-thymidine incorporation): 46056.3 and 60937.4 and 59965.8
[1]; listed as H = 10 pM, listed as RU350
  T cell Proliferation (3H-thymidine incorporation): 52646.7 and 41897.1 and 57220.4
Sigma σ1 Receptor
  Percentage Inhibition of Specific Binding at Sigma-1 Receptor: 82%
Sigma σ1 Receptor; comparison of the four isomers
  binding to the sigma-1 receptor (in words): bind more strongly; also recorded: stronger binding
[2]; LPS/IFN stimulated monocytes, 100 μM to 10 pM, FIG. 2
  reduced production of IL-4: at the majority of concentrations tested
[2]; LPS/IFN stimulated monocytes, 100 μM to 10 pM, FIG. 3
  reduced production of IL-2: at all concentrations tested
[2]; LPS/IFN stimulated monocytes, 100 μM to 10 pM, FIG. 4
  reduced production of IL-5: at the majority of concentrations tested
[2]; LPS/IFN stimulated monocytes, 100 μM to 10 pM, FIG. 5
  reduced production of IL-10: at the majority of concentrations tested
[2]; LPS/IFN stimulated monocytes, 100 μM to 10 pM, FIG. 6
  reduced production of IL-12: at all concentrations tested
[2]; monocytes stimulated by LPS/IFN, FIGS. 1 to 6
  production of a range of different cytokines in monocytes: reduced the production

## CCCCCCC(C)(C)c1cc(O)c2c(c1)OC(C)(C)C1CCC(=O)CC21 (stereo not shown) [Nab, Nabilone, reference compound]
[1]; listed as B = 10 μM
  T cell Proliferation (3H-thymidine incorporation): 72188.2 and 78370.5 and 40910.7
[1]; listed as C = 1 μM
  T cell Proliferation (3H-thymidine incorporation): 48534.9 and 44235.7 and 52155.5
[1]; listed as D = 100 nM
  T cell Proliferation (3H-thymidine incorporation): 65222 and 55348.5 and 41607.6
[1]; listed as E = 10 nM
  T cell Proliferation (3H-thymidine incorporation): 44970.2 and 46765.1 and 36442
[1]; listed as F = 1 nM
  T cell Proliferation (3H-thymidine incorporation): 36994.3 and 35152.2 and 37988.7
[1]; listed as G = 100 pM
  T cell Proliferation (3H-thymidine incorporation): 37202.7 and 44920.7 and 36359.1
[1]; listed as H = 10 pM
  T cell Proliferation (3H-thymidine incorporation): 38818.1 and 34530 and 39295.7
